Experimental data: patent US20050107289A1, “Anti-microbial peptides and compositions” (priority 2001, published 2005)
Non-standard residues stand in square brackets, D forms with d. Residues, ends and D or L forms follow the SMILES beside them.

Tests used:
[1] = system: S. aureus (MRSA) ATCC 33591; format: cell-based, Staphylococcus aureus; conditions: for In Vitro MRSA MIC / MRSA MIC / S. aureus (MRSA) MIC: ATCC 33591; for MRSA (in vitro activity): Table 9, media a: anti-microbial media-3 (AM-3)
Summary of the method: (§1)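 Peptide activity was measured by NCCLS M7-A4 broth dilution, mostly as microdilution with some macrodilution. Serial 2-fold dilutions, approximately 400-2 μg/ml stock range, were made in 5% DMSO/9% aq. sucrose. Overnight cultures were diluted 4000-fold to about 2.5×10^5 cfu/ml inoculum.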

murine red blood cells = assay: Red blood cell hemolysis; format: cell-based, mouse
Summary of the method: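 Washed murine erythrocytes at 5% in saline with 10% FBS were exposed to serial peptide dilutions for 30 min at 37° C. Supernatant absorbance at 560 nm was read, with saline as 0% and 1% Triton X-100 as 100% hemolysis.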

[2] = system: vancomycin-resistant Enterococus faecalis (VRE)(ATCC 51575); format: cell-based, Enterococcus faecalis; design: key to VRE (in vitro activity): peptide concentration in μg/ml (broth dilution assay); conditions: for In Vitro VREF MIC / VRE MIC: ATCC 51575; for VRE (in vitro activity): Table 9, media a: AM-3
Summary of the method: as §1

[3] = system: S. aureus MRSA (ATCC 33591); assay: Mouse peritonitis model, MRSA protection; format: in vivo, mice; design: PD50 MRSA: unit not given here; conditions: for mice survived: fourteen-day study; for PD50 MRSA: Table 12, male Balb-C mice, IP infection, IP peptide; for In Vivo MRSA PD50: Table 13; for protection of mice from MRSA infection: single bolus IP dose of appropriate amount, 45-60 min after infection
Procedure: Bacteria were prepared for in vivo using procedures similar to those as previously described. […] S. aureus MRSA bacteria (ATCC 33591) were grown at 37° C. in 5 mL of Antibiotic Medium-3 (AM-3, Difco Laboratories) with agitation for 12 hours to a stationary phase. Cells were collected by centrifugation, washed twice with saline solution and resuspended in about 10 mL of saline to an O.D.650 of 1.2. This suspension was diluted ten times in a sterilized 5% mucin (Difco) in saline to a concentration of 2-4×10^7 cfu/ml (actual inoculum size was verified by colony counts on agar plates).
Peptides of the invention were tested in mice to ascertain whether they would protect the mice against bacterial infection using procedures similar to those described in N. Frimodt-Moller et al., The Mouse Peritonitis/Sepsis Model, in Zak et al. (eds.) HANDBOOK OF ANIMAL MODELS OF INFECTION 127-37 (Academic Press 1999).
Male Balb-C mice (6 weeks old, approximately 20 g) were used in the study. Staphylococcus aureus MRSA bacteria (ATCC 33591) were grown at 37° C. with agitation for 12 hours to a stationary phase. Cells were collected by centrifugation, washed twice with saline and resuspended to an O.D.650 of 1.4. This suspension was diluted ten times with saline and resuspended to a concentration of 3-5×10^7 cfu/ml. For each peptide five groups of eight mice per group were infected I.P. with 0.5 ml of the above Staphylococcus aureus MRSA preparation (lethal dose). Forty-five minutes to an hour after infection, each group was treated with a different dose of peptide and a control group received vehicle only. Mice were monitored for fourteen days; death was defined as the end point. Median protecting doses (PD50) were calculated following the Reed and Muench method. […] For IV and SQ models peptide was administered immediately after IP infection.

Toxicity studies in mice = format: in vivo; design: LD50(IP) / LD50(IV): unit not given here; conditions: for LD50(IP) / LD50(IV): Table 12, male Balb-C mice; for LD50 at 14 days: male, Balb-C, mouse, in vivo, ip, Table 13
Procedure: Peptides were tested for toxicity in vivo using procedures similar to those described previously. […] Mice (male Balb-C) in groups of 4-8 were given via IV, IP or SQ single bolucdoses of peptides and monitored for 14 days. Toxicity of sublethal doses was assessed based on the behavior and appearance of the mice after peptide administration compared to control mice receiving only vehicle. Signs of acute toxicity included lack of activity, red feet and tail, faster breathing. Death was defined as the end point for lethal doses of peptides.
Toxicology Studies: Initial toxicology studies in mice were conducted to evaluate various routes of drug administration, maximum tolerable dose, and blood and tissue toxicity. Two mice in each dose study were injected with a bolus intravenous (IV), intraperitoneal (IP), or subcutaneous (SQ) doses of peptide SEQ ID NO:8, 18, and 26. For each study, two control animals received vehicle only and no peptide. […] Signs of acute toxicity included any one of the following: lack of activity, red feet and tail, or faster breathing. […] A regimen of […] of peptide SEQ ID NO:18 for three consecutive days was administered to two mice IP and two mice SQ.

| SMILES | In Vitro MRSA MIC [1] [µg/mL] | MRSA MIC [1] [µg/mL] | S. aureus (MRSA) MIC [1] [µg/mL] | MRSA (in vitro activity) [1] | In Vitro RBC MIC (murine red blood cells) [µg/mL] | RBC Hemolysis (HD50) (murine red blood cells) | In Vitro VREF MIC [2] [µg/mL] | VRE MIC [2] [µg/mL] | VRE (in vitro activity) [2] | PD50 S. aureus MRSA infection [3] [mg/kg] | PD50 MRSA [3] | In Vivo MRSA PD50 [3] [mg/kg] | protection of mice from MRSA infection [3] | LD50(IP) (Toxicity studies in mice) | LD50(IV) (Toxicity studies in mice) | LD50 at 14 days (Toxicity studies in mice) [mg/kg] | also measured |
| --- | --- | --- | --- | --- | --- | --- | --- | --- | --- | --- | --- | --- | --- | --- | --- | --- | --- |
| CC(C)C[C@H]1NC(=O)[C@H](Cc2c[nH]c3ccccc23)NC(=O)[C@@H](CCCCN)NC(=O)[C@H](CCCNC(=N)N)NC(=O)[C@@H](CCCNC(=N)N)NC(=O)[C@H](Cc2c[nH]c3ccccc23)NC(=O)[C@@H](CC(C)C)NC(=O)[C@H](Cc2c[nH]c3ccccc23)NC1=O [SEQ ID NO:18, cyclo-(D-Arg-Arg-D-Lys-Trp-D-Leu-Trp-D-Leu-Trp)] (cyclo([dR]R[dK]W[dL]W[dL]W)) | 6 | 5 | 6 | 5 | 50 | 50 | 5 | 5 | 5 | 8 | 8 | 8 | completely protect | 60 | 16 | 60 | mice survived ([3]; 40 mg/kg bolus SQ): 75%; mice survived ([3]; 2.5×5 mg/kg IV dosage regimen): 50%; PD50 protective dose where 50% of animals survive ([3]; FIG. 6, mice challenged with lethal doses of MRSA): 5 ± 2 mg/kg; physical, social and feeding activities (Toxicity studies in mice; mice, 17.5 mg per day, three consecutive days, IP or SQ, over four days): no apparent changes in the physical, social, and feeding activities; sites of IP and SQ injections (Toxicity studies in mice; mice, 17.5 mg per day, three days): moderate subacute inflammation; hematology, necropsy and microscopic examination (Toxicity studies in mice; mice, 17.5 mg per day, three days, fourth day): normal blood and morphological profiles except for the sites of IP and SQ injections; signs of toxicity (Toxicity studies in mice; mice, up to 17.5 mg/kg IP and SQ): without any apparent signs of toxicity |
| CC(C)C[C@H]1NC(=O)[C@H](Cc2c[nH]c3ccccc23)NC(=O)[C@@H](CCCNC(=N)N)NC(=O)[C@H](CCC(N)=O)NC(=O)[C@@H](CCCCN)NC(=O)[C@H](Cc2c[nH]c3ccccc23)NC(=O)[C@@H](CC(C)C)NC(=O)[C@H](Cc2c[nH]c3ccccc23)NC1=O [SEQ ID NO:8, cyclo-(D-Lys-Gln-D-Arg-Trp-D-Leu-Trp-D-Leu-Trp)] (cyclo([dK]Q[dR]W[dL]W[dL]W)) | 12 | – | 6 | – | 40 | – | 12 | – | – | 7 | 7 | 7 | completely protect | 55 | >12 | 55 | HD50 (murine red blood cells): 10 µg/mL; reduction in hemolytic activity (murine red blood cells): five-fold; Hemolysis HD50 (murine red blood cells; red cells of murine): 45 µg/mL; signs of toxicity (Toxicity studies in mice; mice, IP, maximum tested dose 12 mg/kg): no signs of toxicity were observed; signs of toxicity (Toxicity studies in mice; mice, bolus IV 12 mg/kg): signs of temporary (<10 min in duration) discomfort |
| CC(C)C[C@H]1NC(=O)[C@H](Cc2c[nH]c3ccccc23)NC(=O)[C@@H](CCCCN)NC(=O)[C@H](CO)NC(=O)[C@@H](CCCCN)NC(=O)[C@H](Cc2c[nH]c3ccccc23)NC(=O)[C@@H](CC(C)C)NC(=O)[C@H](Cc2c[nH]c3ccccc23)NC1=O [SEQ ID NO:12, D-Lys-Ser-D-Lys-Trp-D-Leu-Trp-D-Leu-Trp] (cyclo([dK]S[dK]W[dL]W[dL]W)) | 5 | 5 | 5 | 5 | 100 | 100 | 15 | 15 | 15 | 20 | 20 | 20 | completely protect | >400 | 70 | > 400 | – |
